Where no end group is shown, it is not given here.
Assays:
[1] = system: diabetic dogs; assay: Safety in treated diabetic dogs: blood counts, chemistry panels, adverse effects; assay type: in vivo, dog
Description: Five diabetic dogs including 4 new onset and 1 long-term, (diagnosis greater than 3 years) were recruited into a test case study. The dogs were enrolled at Colorado State University Veterinary Hospital (CSU-VH), Fort Collins, CO for the study. Each dog was assessed by a Board-Certified Veterinarian. Blood samples were collected from each dog and analyzed by chemistry panels to determine general health, as well as assessed by complete physical examination. The dogs were each confirmed diabetic, blood glucose ranging from 300-600 mg/dl but were generally in good health otherwise. One dog was diagnosed with hypertension, and two dogs had eye problems, partial blindness and the long-term dog was completely blind from diabetes.
Breeds were varied and sizes ranged from 8 to 27 kilos. Four of the dogs had been diagnosed for 3 months or less, 1 dog was diagnosed for 3.5 years. All dogs were receiving daily insulin treatments. The route of administration was IV infusion of SEQ ID NO. 13 over 30 minutes at 2 mg/kg on Days 0, 4, 8 and then weekly thereafter for a total of 8 weeks. The dogs were treated with the dog-sequence (SEQ ID NO: 13—VLRWAPKGYYTISSN); acetate salt form; brought up in sterile PBS for injection; injection was done as a slow infusion over 30 minutes. […] The dog diagnosed for 3.5 years experienced an improvement of time-in-range (percentage of a 24-hour period that blood glucose ranged between 80 and 160) from 10% to 80% for 5 consecutive days in the 5th week and achieved this for the last 3 test weeks. Typical responses in all five dogs was that 3-5 days post treatment improvements in blood glucose occurred. For example, blood glucose would move from 400 to 120, remain stable for 2 days but return to elevated levels. In all the treated dogs, glucose spikes were at lower levels, 300 mg/dl as a high, compared to >500 mg/dl prior to treatment. In fact, prior to treatment, none of the dogs recorded blood glucose levels less than 350. During treatment dogs were at 200 mg/dl or lower the majority of the time and in many cases were at 150 mg/dl or less.
Prior to treatment blood samples were analyzed for blood glucose levels and Th40 cell percentages in peripheral blood. These pre-treatment Th40 cell levels and blood glucose levels can be seen in FIGS. 15, 16, and 17. In FIG. 15, controls are blood samples from test beagles used by CSU-VH and were all confirmed non-diabetic (i.e. not diabetic). […] On day 0, prior to the first treatment, blood was collected from leg vein and analyzed for Th40 cell percentages. […] Samples were analyzed for Th40 cells by flow cytometry. Furthermore, isolated blood was processed to obtain lymphocytes. […] The percentage of CD4+CD40+ as a subset of total CD4+ cells was determined and graphed. […]

[2] = system: CD4+ and CD8+ cells; assay: CD4/CD8 ratio in blood of peptide-treated NOD mice by flow cytometry; assay type: in vivo, mouse; conditions: 25 ug tail vein weekly
Description: (§1) Peptides were designed based on the amino acid sequence of mouse CD154 protein (SEQ ID NO:1) in the SwissPro database. […] Weekly after the initial injection, another 25 ug of peptide (or 100 ul of PBS in the case of the Control mice) was injected into the tail vein. At 10 weeks of age, mice were monitored for diabetes, as indicated by a blood glucose level greater than 250 mg/dL for three consecutive days. During this time, blood was also taken from the tail vein, or by sub-mandibular venal puncture, and the level of CD4+ and CD8+ cells determined by flow cytometry using antibodies for CD4 protein and CD8 protein.

[3] = system: CD3+CD4+CD40+(Th40) splenic cells; assay: Inflammatory cytokines in cultured Th40 splenic cells from ApoE−/− mice; assay type: cell-based, mouse; conditions: overnight culture, varying concentrations, compared to the untreated cells
Description: FIG. 24 provides a graph showing that different concentrations of peptide of SEQ ID NO:46 affects or influences levels of IL-2, IFNγ, and IL-17A. In this study, CD3+CD4+CD40+(Th40) splenic cells were purified from ApoE^−/− with cardiovascular disease. The cells were cultured overnight in the absence/presence of varying concentrations of KGYY6 peptide.

[4] = system: NOD mice; assay: Hyperglycemia in diabetic NOD mice treated with KGYY-15; assay type: in vivo, mouse; conditions: control treatments, blood glucose between 250-400 mg/dl
Description: In this study, NOD mice, blood glucose between 250-400 mg/dl were treated with KGYY-15. Control mice were treated with MR1 an anti-CD154 antibody or scrambled 15-mer peptide (SEQ ID NO: 17). KGYY-15 (SEQ ID NO: 11) reduced blood glucose in 57% of mice treated, the controls MR1 and scrambled 15-mer peptide had no effect.

[5] = system: NOD mice; assay: Development of diabetes in NOD mice treated with CD154 peptide fragments; assay type: in vivo, mouse; conditions: 25 ug (1 mg/kg) tail vein weekly from 6 weeks of age; diabetes = blood glucose greater than 250 mg/dL for three consecutive days
Description: as §1

[6] = diabetic dogs, IV infusion 2 mg/kg

VLRWAPKGYYTISSN [SEQ ID NO: 13, VLRWAPKGYYTISSN]
adverse effects [1, 6]: None of the dogs experienced any adverse effects
chemistry panel numbers [1, 6]: normal
impact on WBC and RBC [1, 6]: no negative impacts
blood chemistry panels versus samples prior to treatment ([1]; each improved from blood samples prior to treatment): normal levels on most parameters

CSCC[C@H](NC(=O)[C@@H](NC(=O)[C@H](Cc1ccc(O)cc1)NC(=O)[C@H](Cc1ccc(O)cc1)NC(=O)CNC(=O)[C@H](CCCCN)NC(=O)[C@H](CCCCN)NC(=O)[C@H](C)NC(=O)[C@H](Cc1c[nH]c2ccccc12)NC(=O)[C@H](CCC(N)=O)NC(=O)[C@H](CC(C)C)NC(=O)[C@@H](N)C(C)C)[C@@H](C)O)C(=O)N[C@@H](CCCCN)C(=O)N[C@@H](CO)C(=O)N[C@@H](CC(N)=O)C(=O)O [15-mer peptide, VLQWAKKGYYTMKSN]
compromise of the immune system, as determined by the CD4/CD8 ratio [2]: did not result in compromise of the immune system

AKKGYY (not fully specified (C-terminus)) [KGYY6]
IFNγ [3]: varying degrees of reduction
IL-2 [3]: varying degrees of reduction
IL-17A [3]: varying degrees of reduction

YKNVKQMAYWLTGKS [scrambled 15-mer peptide]
effect on blood glucose [4]: no effect

VLQWAKKGYYTMK (not fully specified (C-terminus)) [13-mer peptides]
development of diabetes [5]: significant effects on the development of diabetes

— patent US12226450B2, “Peptides and methods for treating disease” (OP-T LLC, priority 2019, dated 2025)
